Measurements: article PMC8886686 (Journal of Inorganic Biochemistry, 2022)

What was measured:
SARS-CoV-2 WT-PLpro = SARS-CoV-2 WT-PLpro (Severe acute respiratory syndrome coronavirus 2, UniProt P0DTD1); test: Zn2+ content determination by ICP-MS, PLpro; format: binding
SARS-CoV-2 3CLpro [1] = molecular target: T1, SARS-CoV-2 3CLpro (Severe acute respiratory syndrome coronavirus 2, UniProt P0DTD1); format: biochemical
SARS-CoV-2 PLpro [2] = molecular target: T2, SARS-CoV-2 PLpro (Severe acute respiratory syndrome coronavirus 2, UniProt P0DTD1); format: binding; conditions: 50 μM metal ion
SARS-CoV-2 PLpro [3] = molecular target: T2, SARS-CoV-2 PLpro; test: PLpro deubiquitination assay with ubiquitin-AMC substrate; format: biochemical
SARS-CoV-2 PLpro [4] = molecular target: T2, SARS-CoV-2 PLpro; format: binding
SARS-CoV-2 3CLpro [5] = molecular target: T1, SARS-CoV-2 3CLpro; format: binding; conditions: 50 μM metal ion
SARS-CoV-2 WT-3CLpro = SARS-CoV-2 WT-3CLpro (Severe acute respiratory syndrome coronavirus 2, UniProt P0DTD1); test: Zn2+ content determination by ICP-MS, 3CLpro; format: binding
SARS-CoV-2 3CLpro [6] = molecular target: T1, SARS-CoV-2 3CLpro; format: binding
SARS-CoV-2 PLpro [7] = molecular target: T2, SARS-CoV-2 PLpro; format: biochemical; conditions: 1 μM PLpro

## O=C([O-])[C@H](O)[C@@H](O)[C@H](O)[C@H](O)CO.O=C([O-])[C@H](O)[C@@H](O)[C@H](O)[C@H](O)CO.[Zn+2] [Zn^2+, zinc gluconate]
SARS-CoV-2 WT-PLpro
  Zn2+ binding capacity per PLpro monomer (ICP-MS): 1.90 ± 0.01 eq.
SARS-CoV-2 3CLpro [1]; 50 μM metal ion, 0.5 μM 3CLpro
  inhibition of the proteolytic activity of 3CLpro: 97.6%
SARS-CoV-2 3CLpro [1]; read-out: IC50, 3CLpro activity, 0.5 μM WT-3CLpro, 10 μM substrate
  IC50: 540 ± 40 nM
SARS-CoV-2 PLpro [2]
  effect on melting temperature of PLpro: most potent metal ion to decrease the melting temperatures
SARS-CoV-2 PLpro [3]
  inhibition of PLpro deubiquitination activity: 95.7%
SARS-CoV-2 PLpro [4]
  Zn2+ bound to PLpro (ITC stoichiometry): 1.23 ± 0.01 eq.
SARS-CoV-2 PLpro [4]; read-out: dissociation constant (KD), PLpro
  Kd: 2170 ± 360 nM
SARS-CoV-2 3CLpro [5]
  effect on melting temperature of 3CLpro: most potent metal ion to decrease the melting temperatures
SARS-CoV-2 WT-3CLpro
  Zn2+ binding capacity of 3CLpro monomer (ICP-MS): 1.24 ± 0.01 eq.
SARS-CoV-2 3CLpro [6]
  Zn2+ bound to 3CLpro monomer (ITC stoichiometry): 0.79 ± 0.01 eq.
SARS-CoV-2 3CLpro [6]; read-out: dissociation constant (KD), 3CLpro (monomer)
  Kd: 4.08 ± 0.66 µM
SARS-CoV-2 PLpro [7]; 50 μM metal ion
  inhibition of the proteolytic activity of PLpro: 98%
SARS-CoV-2 PLpro [7]; read-out: IC50, PLpro activity, 20 μM peptide substrate
  IC50: 530 ± 40 nM
